From PubChem BioAssay (NCI)
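Five concentrations, 48 hours, 96-well plates. The concentration for full growth arrest is given as TGI.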

Experiments:
Assay in all cases: NCI tumour cell line growth inhibition, 48 h
HCC-2998 colon = test system: HCC-2998 colon
SK-MEL-5 melanoma = test system: SK-MEL-5 melanoma
CAKI-1 renal = test system: CAKI-1 renal
OVCAR-8 ovarian = test system: OVCAR-8 ovarian
SF-268 CNS = test system: SF-268 CNS
RXF 393 renal = test system: RXF 393 renal
TK-10 renal = test system: TK-10 renal
BT-549 breast = test system: BT-549 breast
DU-145 prostate = test system: DU-145 prostate
SNB-19 CNS = test system: SNB-19 CNS
MCF7 breast = test system: MCF7 breast
OVCAR-4 ovarian = test system: OVCAR-4 ovarian
COLO 205 colon = test system: COLO 205 colon
NCI-H23 lung = test system: NCI-H23 lung
HCT-116 colon = test system: HCT-116 colon
SW-620 colon = test system: SW-620 colon
SN12C renal = test system: SN12C renal
MDA-MB-231 breast = test system: MDA-MB-231 breast
UACC-257 melanoma = test system: UACC-257 melanoma
ACHN renal = test system: ACHN renal
K-562 leukemia = test system: K-562 leukemia
SNB-75 CNS = test system: SNB-75 CNS
UO-31 renal = test system: UO-31 renal
MOLT-4 leukemia = test system: MOLT-4 leukemia
NCI-H522 lung = test system: NCI-H522 lung
MDA-MB-435 = test system: MDA-MB-435
HT29 colon = test system: HT29 colon
HCT-15 colon = test system: HCT-15 colon
KM12 colon = test system: KM12 colon
A549 NSCLC = test system: A549 NSCLC
UACC-62 melanoma = test system: UACC-62 melanoma
SR leukemia = test system: SR leukemia
T-47D breast = test system: T-47D breast
SK-MEL-2 melanoma = test system: SK-MEL-2 melanoma
MALME-3M melanoma = test system: MALME-3M melanoma
SK-OV-3 ovarian = test system: SK-OV-3 ovarian
SK-MEL-28 melanoma = test system: SK-MEL-28 melanoma
LOX IMVI melanoma = test system: LOX IMVI melanoma
786-0 renal = test system: 786-0 renal
HS 578T breast = test system: HS 578T breast
M14 melanoma = test system: M14 melanoma
U251 CNS = test system: U251 CNS
PC-3 prostate = test system: PC-3 prostate
IGROV1 ovarian = test system: IGROV1 ovarian
CCRF-CEM leukemia = test system: CCRF-CEM leukemia
SF-295 CNS = test system: SF-295 CNS
HOP-62 NSCLC = test system: HOP-62 NSCLC
NCI-H460 lung = test system: NCI-H460 lung
OVCAR-5 ovarian = test system: OVCAR-5 ovarian
EKVX NSCLC = test system: EKVX NSCLC
MDA-N = test system: MDA-N
HOP-92 NSCLC = test system: HOP-92 NSCLC
NCI-H226 lung = test system: NCI-H226 lung
SF-539 CNS = test system: SF-539 CNS
A498 renal = test system: A498 renal
RPMI-8226 leukemia = test system: RPMI-8226 leukemia
NCI/ADR-RES ovarian = test system: NCI/ADR-RES ovarian
OVCAR-3 ovarian = test system: OVCAR-3 ovarian
HL-60(TB) leukemia = test system: HL-60(TB) leukemia

## COC(=O)CSC1CC(=O)c2c(Cl)sc(Cl)c21 (stereo not given)
HCC-2998 colon
  TGI: > 100 µM
SK-MEL-5 melanoma
  TGI: > 100 µM
CAKI-1 renal
  TGI: > 100 µM
OVCAR-8 ovarian
  TGI: > 100 µM
SF-268 CNS
  TGI: > 100 µM
RXF 393 renal
  TGI: > 100 µM
TK-10 renal
  TGI: > 100 µM
BT-549 breast
  TGI: > 100 µM
DU-145 prostate
  TGI: > 100 µM
SNB-19 CNS
  TGI: > 100 µM
MCF7 breast
  TGI: > 100 µM
OVCAR-4 ovarian
  TGI: > 100 µM
COLO 205 colon
  TGI: > 100 µM
NCI-H23 lung
  TGI: > 100 µM
HCT-116 colon
  TGI: > 100 µM
SW-620 colon
  TGI: > 100 µM
SN12C renal
  TGI: > 100 µM
MDA-MB-231 breast
  TGI: > 100 µM
UACC-257 melanoma
  TGI: > 100 µM
ACHN renal
  TGI: > 100 µM
K-562 leukemia
  TGI: > 100 µM
SNB-75 CNS
  TGI: > 100 µM
UO-31 renal
  TGI: > 100 µM
MOLT-4 leukemia
  TGI: > 100 µM
NCI-H522 lung
  TGI: > 100 µM
MDA-MB-435
  TGI: > 100 µM
HT29 colon
  TGI: > 100 µM
HCT-15 colon
  TGI: > 100 µM
KM12 colon
  TGI: > 100 µM
A549 NSCLC
  TGI: > 100 µM
UACC-62 melanoma
  TGI: > 100 µM
SR leukemia
  TGI: > 100 µM
T-47D breast
  TGI: > 100 µM
SK-MEL-2 melanoma
  TGI: > 100 µM
MALME-3M melanoma
  TGI: > 100 µM
SK-OV-3 ovarian
  TGI: > 100 µM
SK-MEL-28 melanoma
  TGI: > 100 µM
LOX IMVI melanoma
  TGI: > 100 µM
786-0 renal
  TGI: > 100 µM
HS 578T breast
  TGI: > 100 µM
M14 melanoma
  TGI: > 100 µM
U251 CNS
  TGI: > 100 µM
PC-3 prostate
  TGI: > 100 µM
IGROV1 ovarian
  TGI: > 100 µM
CCRF-CEM leukemia
  TGI: > 100 µM
SF-295 CNS
  TGI: > 100 µM
HOP-62 NSCLC
  TGI: > 100 µM
NCI-H460 lung
  TGI: > 100 µM
OVCAR-5 ovarian
  TGI: > 100 µM
EKVX NSCLC
  TGI: > 100 µM
MDA-N
  TGI: > 100 µM
HOP-92 NSCLC
  TGI: > 100 µM

## CN(CCNC(=O)c1nn(-c2ccccc2)c2c1ccc1ccccc12)CCNC(=O)c1nn(-c2ccccc2)c2c1ccc1ccccc12
HCC-2998 colon
  TGI: 2.92 µM
NCI-H226 lung
  TGI: 7.7 µM
SK-MEL-5 melanoma
  TGI: 3.1 µM
CAKI-1 renal
  TGI: 15.6 µM
OVCAR-8 ovarian
  TGI: 3.29 µM
SF-268 CNS
  TGI: 4.6 µM
RXF 393 renal
  TGI: 3.34 µM
TK-10 renal
  TGI: 3.37 µM
BT-549 breast
  TGI: 21.8 µM
SF-539 CNS
  TGI: 3.07 µM
A498 renal
  TGI: 5.29 µM
RPMI-8226 leukemia
  TGI: 1.8 µM
DU-145 prostate
  TGI: 70.2 µM
SNB-19 CNS
  TGI: 8.11 µM
MCF7 breast
  TGI: 3.91 µM
OVCAR-4 ovarian
  TGI: 22.1 µM
COLO 205 colon
  TGI: 2.99 µM
NCI-H23 lung
  TGI: 6.78 µM
HCT-116 colon
  TGI: 2.87 µM
SW-620 colon
  TGI: 4.46 µM
SN12C renal
  TGI: 3.46 µM
MDA-MB-231 breast
  TGI: 2.74 µM
UACC-257 melanoma
  TGI: 3.22 µM
ACHN renal
  TGI: 5.51 µM
SNB-75 CNS
  TGI: 5.55 µM
NCI/ADR-RES ovarian
  TGI: 9.15 µM
UO-31 renal
  TGI: 3.78 µM
MOLT-4 leukemia
  TGI: 1.72 µM
NCI-H522 lung
  TGI: 3.6 µM
MDA-MB-435
  TGI: 4 µM
HT29 colon
  TGI: 15.8 µM
HCT-15 colon
  TGI: 3.39 µM
KM12 colon
  TGI: 6.22 µM
A549 NSCLC
  TGI: 10.6 µM
UACC-62 melanoma
  TGI: 3.37 µM
T-47D breast
  TGI: 6.95 µM
OVCAR-3 ovarian
  TGI: 4.16 µM
SK-MEL-2 melanoma
  TGI: 3.5 µM
MALME-3M melanoma
  TGI: 3.84 µM
SK-OV-3 ovarian
  TGI: 7.28 µM
SK-MEL-28 melanoma
  TGI: 3.23 µM
HL-60(TB) leukemia
  TGI: 3.94 µM
LOX IMVI melanoma
  TGI: 3.18 µM
786-0 renal
  TGI: 3.04 µM
HS 578T breast
  TGI: 4.22 µM
M14 melanoma
  TGI: 3.85 µM
U251 CNS
  TGI: 3.05 µM
PC-3 prostate
  TGI: 7.08 µM
IGROV1 ovarian
  TGI: 5.27 µM
CCRF-CEM leukemia
  TGI: 9.92 µM
SF-295 CNS
  TGI: 3.21 µM
HOP-62 NSCLC
  TGI: 3.38 µM
NCI-H460 lung
  TGI: 2.99 µM
OVCAR-5 ovarian
  TGI: 40.5 µM
EKVX NSCLC
  TGI: 4.41 µM
MDA-N
  TGI: 3.19 µM
HOP-92 NSCLC
  TGI: 3.79 µM

## O=[N+]([O-])c1cccc(-c2ncnc(-c3cccc([N+](=O)[O-])c3)n2)c1
HCC-2998 colon
  TGI: > 100 µM
NCI-H226 lung
  TGI: > 100 µM
SK-MEL-5 melanoma
  TGI: > 100 µM
CAKI-1 renal
  TGI: 93.3 µM
OVCAR-8 ovarian
  TGI: > 100 µM
SF-268 CNS
  TGI: > 100 µM
RXF 393 renal
  TGI: 62.8 µM
TK-10 renal
  TGI: > 100 µM
BT-549 breast
  TGI: > 100 µM
A498 renal
  TGI: > 100 µM
RPMI-8226 leukemia
  TGI: > 100 µM
DU-145 prostate
  TGI: > 100 µM
MCF7 breast
  TGI: > 100 µM
COLO 205 colon
  TGI: > 100 µM
NCI-H23 lung
  TGI: > 100 µM
HCT-116 colon
  TGI: > 100 µM
SW-620 colon
  TGI: > 100 µM
SN12C renal
  TGI: > 100 µM
MDA-MB-231 breast
  TGI: 98.2 µM
UACC-257 melanoma
  TGI: > 100 µM
K-562 leukemia
  TGI: > 100 µM
SNB-75 CNS
  TGI: > 100 µM
NCI/ADR-RES ovarian
  TGI: > 100 µM
UO-31 renal
  TGI: > 100 µM
MOLT-4 leukemia
  TGI: > 100 µM
NCI-H522 lung
  TGI: > 100 µM
MDA-MB-435
  TGI: > 100 µM
HT29 colon
  TGI: > 100 µM
KM12 colon
  TGI: > 100 µM
A549 NSCLC
  TGI: > 100 µM
UACC-62 melanoma
  TGI: 95.2 µM
T-47D breast
  TGI: > 100 µM
OVCAR-3 ovarian
  TGI: > 100 µM
SK-MEL-2 melanoma
  TGI: > 100 µM
MALME-3M melanoma
  TGI: > 100 µM
SK-OV-3 ovarian
  TGI: > 100 µM
SK-MEL-28 melanoma
  TGI: > 100 µM
HL-60(TB) leukemia
  TGI: > 100 µM
LOX IMVI melanoma
  TGI: > 100 µM
786-0 renal
  TGI: > 100 µM
HS 578T breast
  TGI: > 100 µM
M14 melanoma
  TGI: > 100 µM
U251 CNS
  TGI: 59.6 µM
PC-3 prostate
  TGI: > 100 µM
IGROV1 ovarian
  TGI: > 100 µM
SF-295 CNS
  TGI: > 100 µM
HOP-62 NSCLC
  TGI: 37.5 µM
OVCAR-5 ovarian
  TGI: > 100 µM
EKVX NSCLC
  TGI: > 100 µM
MDA-N
  TGI: > 100 µM
HOP-92 NSCLC
  TGI: 57.2 µM
